Test system: Melanoderm cultures
Assay: Solvable melanin assay on Melanoderm cultures (3-D skin model)
Assay type: cell-based
Settings: for OD = 490 nm (melanin content): Melanoderm cultures fed every other day for 2 weeks, Untreated control 1.259, ETOH control 1.035
Description: This experiment was carried out using a Melanoderm cultures. […] was measured using a chromameter to assay the degree of melanization of a 3-D skin model. Melanoderm cultures were obtained from MatTek Corporation, Ashland, Mass. The Melanoderm was maintained according to the manufacturer's instructions. The basal media used for the maintenance of the Melanoderm cultures was DMEM supplemented with unspecified quantities of Epidermal growth factor, Insulin, Hydrocortisone, and proprietary epidermal differentiation compounds, in addition to anti-fungal and antibiotics. For the long term maintenance of the Melanoderms, the basal media was supplemented with both bFGF and a-MSH, compounds which are stimulators of melanocyte growth and melanogenesis. The cultures were fed every other day for a total of 2 weeks—fresh active preparations, prepared in DMSO or culture media, were also applied to the Melanoderms when feeding was performed. Each treatment condition was done in duplicate and digital photographs were taken of the Melanoderm cultures to assess overall pigmentation. As well, microscopic images of the Melanoderms were done to assess the cell viability of the keratinocytes and melanocytes. For further evidence that the treatments were/not cytotoxic, an LDH assay (Promega, Madison, Wis.) was performed on the supernatants from 24 hour post-treatment cultures. After treatment, tissues are usually frozen until completion of the experiment. Thaw tissues, a few at a time and place in D-PBS to remove excess phenol red from the culture medium and residual test article. Remove a single tissue from the insert. Blot dry and place in 1.7 ml. microfuge tube. Repeat for all samples. Add 250 ul Solvable™ (Tissue and Gel Solubilizer 0.5 M—Packard BioScience Co. Catalogue No. 6NE9100 (NEF910)). Close the tube and make sure that the tissue is completely submerged. Incubate at 60° C. overnight along with standards. In the morning, vortex the samples. Sometimes thick tissues will require additional time to complete the solution process. To Prepare Standard: Dissolve Melanin (Sigma cat. M 8631) in Solvable at 1 mg/ml. The solution may be warmed gently for 15 minutes at 37° C. Store solution in dark. To Prepare Standard Curve: Prepare dilutions from the standard containing 0 ug to 250 ug of melanin in a total of 250 ul Solvable. Incubate dilutions along with samples. To Read Assay: Cool samples and standards. Centrifuge at 13,000 rpm for 5 minutes to pellet. Fill microwell plate (C-96) with 200 ul each of samples and standards. There is some foaming of samples when pipetted. Blow gently across the samples to break bubbles prior to reading the plate. Read plate at […].

O=C(O)C(=O)Cc1ccc(O)cc1 [4-hydroxyphenylpyruvate]
OD = 490 nm (melanin content) (5 uM): 1.236
OD = 490 nm (melanin content) (50 uM): 0.687
OD = 490 nm (melanin content) (500 uM): 0.565
OD = 490 nm (melanin content) (1000 uM): 0.453
effect on melanin synthesis (conclusion from Table 5, Melanoderm cultures): reduce melanin synthesis
